Legend:
22Rv1 = tested on: 22Rv1; parameters: method as in PMID 27355960; settings: cited from earlier work
ERK1/2 in 22Rv1 cells = assay: Western blotting, MAPK activation; type: cell-based, human; settings: 22Rv1, 1 µM or 10 µM
Description: (§1) We examined several time points, specifically, 15 min, 2 h, and 48 h (Figure 6).
(§2) Figure 6 Validation of kinome analysis data. 22Rv1 cells were treated with 1 µM or 10 µM of NB for the indicated time. The protein expression was analyzed by Western blotting using total protein load equal to 30 µg/slot. α-Tubulin was used as a loading control.
(§3) The Western blot assay was executed as previously described: 1 × 10^6 cells were seeded in Petri dishes (ø 6 cm, 5 mL/dish) and incubated overnight. On the next day, the cells were treated with the compounds in fresh culture media (5 mL/dish) for the indicated time. Next, cells were harvested with a cell scraper and lysed in lysis buffer including protease and phosphatase inhibitors cocktail (Roche, Mannheim, Germany). Cell debris were removed from the protein lysates via centrifugation. Afterwards, the cell-free protein mixtures were separated in gradient ready-made Mini-PROTEAN® TGX Stain-Free^TM gels (Bio-Rad, Hercules, CA, USA) using SDS-PAGE (sodium dodecylsulfate polyacrylamide gel electrophoresis). Then, the proteins were blotted onto ø 0.2 µm pore PVDF membrane. The membrane was blocked and consequently treated with primary and secondary antibodies for protein detection. The signals were detected using the ECL chemiluminescence system (Thermo Scientific, Rockford, IL, USA).

JNK1/2 in 22Rv1 cells = assay: Western blotting, MAPK activation; type: cell-based, human; settings: 22Rv1, 1 µM or 10 µM
Description: as §1, §2, §3

p38 in 22Rv1 cells = assay: Western blotting, MAPK activation; type: cell-based, human; settings: 22Rv1, 1 µM or 10 µM, 2 h
Description: as §1, §2, §3

[1] = tested on: various pathogenic bacteria; parameters: method as in PMID 26039736; settings: cited from earlier work
LC3B-I/II in 22Rv1 cells = assay: Western blotting, autophagy marker; type: cell-based, human
Description: as §1, §2, §3

LNCaP = tested on: LNCaP; parameters: method as in PMID 27355960; settings: cited from earlier work
[2] = parameters: method as in PMID 27355960; settings: no hemolytic activity; cited from earlier work
PC3-DR cells = assay: MTT assay with or without tariquidar pretreatment; type: cell-based, human; settings: 48 h, tariquidar 50 nM 30 min pretreatment
Description: (§4) Number of replicates n = 3. […] Viability was measured using an MTT assay. Number of replicates n = 3.
As a next step, we investigated how NB interacts with p-gp. P-gp activity can be reduced in two distinct ways: (i) competitive inhibition through direct binding to the active pocket as the ligand itself; and (ii) allosteric/noncompetitive inhibition reducing the activity of a protein through binding to allosteric/regulatory sites or other means. […] Therefore, docetaxel binds to p-gp (while being excreted from the cell), competitively inhibiting p-gp-mediated calcein-AM excretion, which leads to calcein accumulation, resulting in more intense green fluoresce. To elucidate the mechanism of p-gp inhibition by NB (competitive vs. allosteric/noncompetitive inhibition), we co-treated PC3-DR cells with tariquidar (TQD), a selective noncompetitive p-gp inhibitor and NB, and examined the effect on cellular viability (Figure 8C). […]
The MTT assay was used to monitor the effect of the drugs on cell viability in terms of metabolic activity, as previously reported. […] Finally, 50 μL/well of DMSO were added to solve the formed formazan crystals produced by the metabolic active cells and Infinite F200PRO reader (TECAN, Männedorf, Switzerland) was used to measure the cell viability. […]

[3] = tested on: caspase-3 in PC3-DR cells; assay: Western blotting, caspase-3 cleavage; type: cell-based, human; settings: 48 h
Description: as §4
It is important to note that a reduction in p-gp activity could be conditioned by p-gp degradation or cell death-related processes. Consequently, using a Western blotting analysis, we measured p-gp expressional levels in the treated PC3-DR cells. […] Thus, the observed effect on p-gp activity seems to be exclusively related to the interaction of NB with p-gp rather than result from any cell death-related events.
as §3, with “The membrane was blocked and consequently treated with primary and secondary antibodies for protein detection.” left out

For `COc1ccc(C2SSC34CC5(O)C(Cl)C=CC(O)C5ON3C(=O)C2N(C)C4=O)c(O)c1OC` (centres unmarked) [NB, N-methylpretrichodermamide B], the IC50 (22Rv1) is given as 510 nM, the “activation of ERK1/2” value (ERK1/2 in 22Rv1 cells) is given as “no activation” and the JNK1/2 phosphorylation (JNK1/2 in 22Rv1 cells; 2 h) is given as “pronounced JNK1/2 phosphorylation”. The JNK1/2 phosphorylation (JNK1/2 in 22Rv1 cells; 48 h) was “no phosphorylation (or even slight downregulation)”, the “activation of p38” value (p38 in 22Rv1 cells) was “activation of p38” and the MIC [1] was 8–32 µm/mL. For the same compound, the “effect on autophagy (LC3B-I/II expression)” value (LC3B-I/II in 22Rv1 cells) was “no significant effect on autophagy”, the IC50 (LNCaP) was 1760 nM and the IC50 [2] was ≥ 100000 nM. For the same compound, the “cytotoxicity when co-treated with TQD” value (PC3-DR cells) was “increased” and the “concentration at which cleavage of caspase-3 was detected” value [3] was 6 µM.
